Calls of active or inactive are those of the source. No cut-off for these calls is given here.
Experiments:
[1] = system: Rattus norvegicus; assay: Induction of circling behaviour in Sprague-Dawley rat administered into nucleus accumbens in presence of propranolol; assay type: functional, organism-based
[2] = system: Rattus norvegicus; assay: Induction of circling behaviour in Sprague-Dawley rat administered into nucleus accumbens in presence of aceperone; assay type: functional, organism-based
[3] = system: Canis familiaris; assay: Toxicity in dog up to 2 mg/kg, sc; assay type: organism-based, Canis lupus familiaris; parameters: dose 2 mg/kg, route subcutaneous; conditions: in vivo
[4] = system: Rattus norvegicus; assay: Induction of stereotyped behaviour in Sprague-Dawley rat administered into nucleus accumbens in presence of 5 mg/kg propranolol; assay type: functional, organism-based; parameters: dose 5 mg/kg
[5] = system: Rattus norvegicus; assay: Induction of circling behaviour in sc dosed Sprague-Dawley rat in presence of 5 mg/kg propranolol; assay type: functional, organism-based; parameters: dose 5 mg/kg
[6] = organism: Felis catus; assay: Agonist activity at dopamine receptor in cat right atrium assessed as inhibition of cardiaccelerator nerve stimulation rate by cardiotachometer analysis; assay type: tissue-based; conditions: Cardiac atrium
[7] = system: Rattus norvegicus; assay: Induction of circling behaviour in sc dosed Sprague-Dawley rat assessed as reversal of spontaneous ipsilateral to contralateral circling response; assay type: functional, organism-based
[8] = system: Felis catus; assay: Inhibition of 2 Hz electric current-induced cardioaccelerator nerve stimulation in iv dosed cat by cardiotachometer analysis in presence of 0.2 mg/kg, iv haloperidol; assay type: functional, organism-based; parameters: dose 0.2 mg/kg; conditions: at 0.2 mg/kg
[9] = system: Rattus norvegicus; assay: Induction of stereotyped behaviour in Sprague-Dawley rat administered into caudate putamen in presence of 0.2 to 0.8 mg/kg haloperidol; assay type: functional, organism-based
[10] = system: Felis catus; assay: Inhibition of 10 Hz electric current-induced cardioaccelerator nerve stimulation in iv dosed cat by cardiotachometer analysis; assay type: functional, organism-based
[11] = system: Rattus norvegicus; assay: Induction of circling behaviour in Sprague-Dawley rat administered into caudate putamen; assay type: functional, organism-based
[12] = system: Rattus norvegicus; assay: Induction of hyperactivity in Sprague-Dawley rat administered into caudate putamen in presence of 0.2 to 0.8 mg/kg haloperidol; assay type: functional, organism-based
[13] = system: Rattus norvegicus; assay: Induction of circling behaviour in Sprague-Dawley rat administered into nucleus accumbens; assay type: functional, organism-based
[14] = system: Felis catus; assay: Hypotensive activity in iv dosed cat in presence of haloperidol; assay type: functional, organism-based
[15] = system: Rattus norvegicus; assay: Induction of hyperactivity in Sprague-Dawley rat administered into caudate putamen; assay type: functional, organism-based
[16] = system: Rattus norvegicus; assay: Induction of hyperactivity in Sprague-Dawley rat administered into nucleus accumbens in presence of 5 mg/kg aceperone; assay type: functional, organism-based; parameters: dose 5 mg/kg
[17] = system: Rattus norvegicus; assay: Induction of stereotyped behaviour in Sprague-Dawley rat administered into caudate putamen; assay type: functional, organism-based
[18] = system: Rattus norvegicus; assay: Induction of circling behaviour in sc dosed Sprague-Dawley rat in presence of 0.8 mg/kg haloperidol; assay type: functional, organism-based; parameters: dose 0.8 mg/kg
[19] = system: Columba livia; assay: Antagonism of apomorphine-induced pecking in im dosed pigeon treated 15 mins prior to apomorphine challenge; assay type: functional
[20] = system: Canis familiaris; assay: Induction of emesis in sc dosed dog; assay type: functional; conditions: Canis lupus familiaris
[21] = system: Rattus norvegicus; assay: Induction of circling behaviour in Sprague-Dawley rat administered into caudate putamen in presence of haloperidol; assay type: functional, organism-based
[22] = system: Rattus norvegicus; assay: Induction of hyperactivity in Sprague-Dawley rat administered into caudate putamen in presence of 5 mg/kg propranolol; assay type: functional, organism-based; parameters: dose 5 mg/kg
[23] = system: Felis catus; assay: Inhibition of 2 Hz electric current-induced cardioaccelerator nerve stimulation in iv dosed cat by cardiotachometer analysis in presence of 2 mg/kg, iv phentolamine; assay type: functional, organism-based; parameters: dose 2 mg/kg; conditions: at 2 mg/kg
[24] = system: Rattus norvegicus; assay: Induction of circling behaviour in Sprague-Dawley rat administered into caudate putamen in presence of propranolol; assay type: functional, organism-based
[25] = system: Columba livia; assay: Induction of pecking in im dosed pigeon; assay type: functional, organism-based
[26] = system: Rattus norvegicus; assay: Induction of stereotyped behaviour in Sprague-Dawley rat administered into nucleus accumbens in presence of 0.2 to 0.8 mg/kg haloperidol; assay type: functional, organism-based
[27] = system: Felis catus; assay: Hypotensive activity in iv dosed cat; assay type: functional, organism-based
[28] = system: Rattus norvegicus; assay: Induction of circling behaviour in sc dosed Sprague-Dawley rat assessed as onset of action; assay type: functional
[29] = system: Rattus norvegicus; assay: Induction of stereotyped behaviour in Sprague-Dawley rat administered into caudate putamen in presence of 5 mg/kg aceperone; assay type: functional, organism-based; parameters: dose 5 mg/kg
[30] = system: Rattus norvegicus; assay: Induction of circling behaviour in Sprague-Dawley rat administered into nucleus accumbens in presence of haloperidol; assay type: functional, organism-based
[31] = system: Rattus norvegicus; assay: Induction of hyperactivity in Sprague-Dawley rat administered into nucleus accumbens in presence of 0.2 to 0.8 mg/kg haloperidol; assay type: functional, organism-based
[32] = system: Rattus norvegicus; assay: Induction of circling behaviour in sc dosed Sprague-Dawley rat assessed as duration of action; assay type: functional
[33] = system: Rattus norvegicus; assay: Induction of circling behaviour in sc dosed Sprague-Dawley rat in presence of 5 mg/kg aceperone; assay type: functional, organism-based; parameters: dose 5 mg/kg
[34] = system: Rattus norvegicus; assay: Induction of hyperactivity in Sprague-Dawley rat at 2.5 to 20 mg/kg, sc; assay type: functional, organism-based
[35] = system: Rattus norvegicus; assay: Induction of hyperactivity in Sprague-Dawley rat administered into nucleus accumbens in presence of 5 mg/kg propranolol; assay type: functional, organism-based; parameters: dose 5 mg/kg
[36] = system: Rattus norvegicus; assay: Induction of hyperactivity in Sprague-Dawley rat administered into caudate putamen in presence of 5 mg/kg aceperone; assay type: functional, organism-based; parameters: dose 5 mg/kg
[37] = system: Felis catus; assay: Effect on heart rate in iv dosed cat; assay type: functional, organism-based
[38] = system: Rattus norvegicus; assay: Induction of hyperactivity in Sprague-Dawley rat administered into nucleus accumbens; assay type: functional, organism-based
[39] = system: Rattus norvegicus; assay: Induction of stereotyped behaviour in Sprague-Dawley rat administered into nucleus accumbens; assay type: functional, organism-based
[40] = system: Rattus norvegicus; assay: Induction of stereotyped behaviour in Sprague-Dawley rat administered into caudate putamen in presence of 5 mg/kg propranolol; assay type: functional, organism-based; parameters: dose 5 mg/kg
[41] = system: Felis catus; assay: Inhibition of 2 Hz electric current-induced cardioaccelerator nerve stimulation in iv dosed cat by cardiotachometer analysis; assay type: functional
[42] = system: Rattus norvegicus; assay: Induction of circling behaviour in Sprague-Dawley rat administered into caudate putamen in presence of aceperone; assay type: functional, organism-based
[43] = system: Canis familiaris; assay: Antagonism of apomorphine-induced emesis in sc dosed dog treated 15 mins prior to apomorphine challenge; assay type: functional, organism-based; conditions: Canis lupus familiaris
[44] = system: Rattus norvegicus; assay: Induction of stereotyped behaviour in Sprague-Dawley rat administered into nucleus accumbens in presence of 5 mg/kg aceperone; assay type: functional, organism-based; parameters: dose 5 mg/kg
[45] = system: Rattus norvegicus; assay: Induction of stereotyped behaviour in Sprague-Dawley rat at 2.5 to 20 mg/kg, sc; assay type: functional, organism-based
[46] = system: Rattus norvegicus; assay: Effect on motor function in Sprague-Dawley rat administered into caudate putamen; assay type: functional, organism-based
[47] = system: Rattus norvegicus; assay: Induction of stereotyped behaviour in sc dosed Sprague-Dawley rat pretreated for 30 mins with 0.4 mg/kg haloperidol; assay type: functional, organism-based; parameters: dose 0.4 mg/kg
[48] = system: Rattus norvegicus; assay: Induction of hyperactivity in Sprague-Dawley rat at 40 mg/kg, sc pretreated for 30 mins with 5 mg/kg aceperone; assay type: functional, organism-based
[49] = system: Rattus norvegicus; assay: Induction of hyperactivity in Sprague-Dawley rat at 40 mg/kg, sc pretreated for 30 mins with 5 mg/kg propranolol; assay type: functional, organism-based
[50] = system: Rattus norvegicus; assay: Induction of hyperactivity in Sprague-Dawley rat at 40 mg/kg, sc pretreated for 30 mins with 0.4 mg/kg haloperidol; assay type: functional, organism-based
[51] = system: Rattus norvegicus; assay: Induction of stereotyped behaviour in sc dosed Sprague-Dawley rat assessed as onset of action; assay type: functional
[52] = system: Rattus norvegicus; assay: Induction of hyperactivity in Sprague-Dawley rat at 40 mg/kg, sc; assay type: functional, organism-based; parameters: dose 40 mg/kg
[53] = system: Rattus norvegicus; assay: Induction of hyperactivity in Sprague-Dawley rat at 40 mg/kg, sc pretreated for 18 hrs with 5 mg/kg reserpine and 6 hrs with 250 mg/kg alpha-methyl-p-tyrosine; assay type: functional, organism-based
[54] = system: Rattus norvegicus; assay: Induction of stereotyped behaviour in sc dosed Sprague-Dawley rat assessed as duration of action; assay type: functional
[55] = system: Rattus norvegicus; assay: Induction of stereotyped behaviour in sc dosed Sprague-Dawley rat; assay type: functional, organism-based

SMILES: CCN(CC)CCc1ccc(O)c(O)c1
- Activity [1]: Active
- Activity [2]: Active
- Activity [3]: Non-toxic
- Activity [4]: Active
- Activity [5]: Active
- ED50 [6]: 340 nM
- Activity [7]: Active
- inhibition [8]: inactive
- Activity [9]: inactive
- inhibition [10]: inactive
- Activity [11]: Active
- Activity [12]: inactive
- Activity [13]: Active
- Activity [14]: inactive
- Activity [15]: Active
- Activity [16]: Active
- Activity [17]: Active
- Activity [18]: inactive
- ED50 [19]: inactive
- ED50 [20]: inactive
- Activity [21]: inactive
- Activity [22]: Active
- inhibition [23]: Active
- Activity [24]: Active
- Activity [25]: inactive
- Activity [26]: inactive
- Activity [27]: Active
- Time [28]: 3 min
- Activity [29]: Active
- Activity [30]: inactive
- Activity [31]: inactive
- Time [32]: 5 min
- Activity [33]: Active
- Activity [34]: inactive
- Activity [35]: Active
- Activity [36]: Active
- Activity [37]: inactive
- Activity [38]: Active
- Activity [39]: Active
- Activity [40]: Active
- ED50 [41]: 0.041 µmol/kg
- Activity [42]: Active
- inhibition [43]: inactive
- Activity [44]: Active
- Activity [45]: inactive

SMILES: CCCN(CCC)CCc1ccc(O)c(O)c1
- ED50 [6]: 420 nM
- inhibition [8]: inactive
- Activity [9]: inactive
- inhibition [10]: inactive
- Activity [12]: inactive
- Activity [46]: inactive
- Activity [47]: inactive
- Activity [14]: inactive
- Activity [18]: inactive
- ED50 [19]: 56 µmol/kg
- ED50 [20]: 1 mg/kg
- Activity [21]: inactive
- inhibition [23]: Active
- Activity [25]: inactive
- Activity [26]: inactive
- Activity [48]: Active
- Activity [49]: Active
- Activity [27]: Active
- Time [28]: 3 min
- Activity [50]: inactive
- Activity [30]: inactive
- Activity [31]: inactive
- Time [32]: 5 min
- Time [51]: <5 min
- Activity [37]: inactive
- Activity [52]: Active
- ED50 [41]: 0.068 µmol/kg
- Activity [53]: Active
- Time [54]: 10 min
- Activity [55]: Dose-dependent effect

Reference: ChEMBL document CHEMBL3244265, “Preparation and biological actions of some symmetrically N,N-disubstituted dopamines” (J Med Chem, 1978)
